This note sets out measurements from patent publication US10793563B2, “GCN2 inhibitors and uses thereof” (Merck Patent GmbH, priority 2018, dated 2020).

By IC50 is commonly meant the concentration that inhibits the measured activity by half.

Each structure is given as a SMILES string. A value given as a limit tells only on which side of the number the result lay.

The target in test [1] is intracellular GCN2 (phosphorylation of the GCN2 substrate eIF2α) (Homo sapiens (Human), UniProt Q9P2K8). The test is described as follows: GCN2 Cellular Inhibition Assay (AlphaScreen SureFire P-eIF2α Ser51, borrelidin-treated U2OS cells). It counts as cell-based. The settings on record: 10 μM borrelidin, 1 h, phosphorylated eIF2α Ser51, read-out: GCN2 Biomarker (IC50). Summed up: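 U2OS cells adhered overnight, then given compound (top 40 μM, 4-fold serial dilutions) plus 10 μM borrelidin for 1 h at 37 °C. Lysates assayed for eIF2α phospho-Ser51 by AlphaScreen SureFire; % inhibition versus borrelidin-only wells.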
intracellular GCN2 (phosphorylation of the GCN2 substrate eIF2α), sequence (Q9P2K8 whole entry): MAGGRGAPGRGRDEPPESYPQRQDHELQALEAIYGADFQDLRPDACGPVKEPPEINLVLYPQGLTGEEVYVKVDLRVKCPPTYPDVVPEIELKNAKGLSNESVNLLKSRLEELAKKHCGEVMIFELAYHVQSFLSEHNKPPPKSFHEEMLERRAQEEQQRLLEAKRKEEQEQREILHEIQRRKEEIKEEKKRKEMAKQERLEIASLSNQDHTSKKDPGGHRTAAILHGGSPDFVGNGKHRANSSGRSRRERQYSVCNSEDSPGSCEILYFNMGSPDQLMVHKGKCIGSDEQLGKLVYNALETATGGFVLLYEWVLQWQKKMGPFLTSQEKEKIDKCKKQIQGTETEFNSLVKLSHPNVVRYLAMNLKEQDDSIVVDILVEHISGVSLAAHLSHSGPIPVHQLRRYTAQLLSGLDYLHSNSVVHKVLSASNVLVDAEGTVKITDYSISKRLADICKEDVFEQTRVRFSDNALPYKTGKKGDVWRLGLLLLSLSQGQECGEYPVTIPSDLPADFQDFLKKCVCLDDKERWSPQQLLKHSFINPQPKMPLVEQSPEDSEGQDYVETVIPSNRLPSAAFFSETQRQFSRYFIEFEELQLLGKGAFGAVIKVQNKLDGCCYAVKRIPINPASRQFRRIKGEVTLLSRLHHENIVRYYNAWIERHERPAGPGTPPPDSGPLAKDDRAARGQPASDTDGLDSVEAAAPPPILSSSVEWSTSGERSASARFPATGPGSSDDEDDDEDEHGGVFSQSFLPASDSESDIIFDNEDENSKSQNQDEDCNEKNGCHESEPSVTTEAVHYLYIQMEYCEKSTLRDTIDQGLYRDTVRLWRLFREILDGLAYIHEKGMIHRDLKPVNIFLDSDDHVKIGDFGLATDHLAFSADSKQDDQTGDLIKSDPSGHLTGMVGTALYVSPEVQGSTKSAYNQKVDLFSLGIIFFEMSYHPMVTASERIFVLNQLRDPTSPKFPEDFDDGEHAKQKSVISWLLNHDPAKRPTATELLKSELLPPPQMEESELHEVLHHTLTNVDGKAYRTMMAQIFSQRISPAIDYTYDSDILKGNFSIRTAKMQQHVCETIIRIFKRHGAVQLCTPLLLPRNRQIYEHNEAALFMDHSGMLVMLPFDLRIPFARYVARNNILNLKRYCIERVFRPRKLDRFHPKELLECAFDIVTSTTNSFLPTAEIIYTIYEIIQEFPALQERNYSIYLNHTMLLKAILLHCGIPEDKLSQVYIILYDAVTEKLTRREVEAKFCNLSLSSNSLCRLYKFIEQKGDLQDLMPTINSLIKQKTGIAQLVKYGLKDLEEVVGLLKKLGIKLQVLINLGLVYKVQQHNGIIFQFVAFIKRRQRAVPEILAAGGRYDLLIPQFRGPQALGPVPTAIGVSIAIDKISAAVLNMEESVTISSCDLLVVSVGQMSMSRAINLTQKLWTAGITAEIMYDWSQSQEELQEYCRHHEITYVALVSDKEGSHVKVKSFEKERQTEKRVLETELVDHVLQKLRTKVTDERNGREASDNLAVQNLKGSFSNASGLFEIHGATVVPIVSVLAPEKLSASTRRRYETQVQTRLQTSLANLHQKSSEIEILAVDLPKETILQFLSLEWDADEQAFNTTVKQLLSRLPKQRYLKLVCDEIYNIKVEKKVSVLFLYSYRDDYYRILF
In general terms: Bead proximity is the source of the signal in Alpha formats.

Test [2] concerns the target GCN2 kinase (Homo sapiens (Human), UniProt Q9P2K8). The experiment in a line: GCN2 Enzyme Inhibition Assay (Transcreener ADP2 fluorescence polarization). It counts as biochemical. The settings on record: 280 μM ATP, 200 μM (RS)7 peptide, 4 nM GCN2, 25° C.; for Ki: Ki(app). Summed up:
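Transcreener ADP2 fluorescence polarization detection of ADP from 4 nM GCN2 with (RS)7 substrate in 25 mM Tris-HCl pH 7.5, 50 mM NaCl, 10 mM MgCl2, 1 mM DTT. Compound pre-incubated with enzyme 10 min at 25 °C; reaction started by ATP, run 1 h at 25 °C. IC50 and Ki(app) by tight-binding fit.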

GCN2 kinase, sequence (Q9P2K8 whole entry): as above

Take `C[C@@H]1C[C@H](c2cn[nH]c2)CN(c2nccc(-c3cnc4ccc(Cl)cn34)n2)C1` [I-196, 6-chloro-3-(2-((3R,5R)-3-methyl-5-(1H-pyrazol-4-yl)piperidin-1-yl)pyrimidin-4-yl)imidazo[1,2-a]pyridine]: the IC50 in test [1] was below 500 nM; in test [2], below 10 nM.

On to `Cc1oncc1[C@@H]1CN(c2ccnc(-c3cnc4ccc(C(F)(F)F)cn34)n2)C[C@@H](C)O1` [I-343, (2R,6R)-2-methyl-6-(5-methylisoxazol-4-yl)-4-(2-(6-(trifluoromethyl)imidazo[1,2-a]pyridin-3-yl)pyrimidin-4-yl)morpholine], for which the figures for the IC50 in test [1] and in test [2] were 500 to 5000 nM and 100 to 1000 nM, respectively.

Turning to `C[C@@H]1CN(c2nccc(-c3cnc4ccc(Cl)cn34)n2)C[C@@H](c2cn[nH]c2)O1` [I-251, (2R,6R)-4-(4-(6-chloroimidazo[1,2-a]pyridin-3-yl)pyrimidin-2-yl)-2-methyl-6-(1H-pyrazol-4-yl)morpholine], the IC50 in test [1] fell in the range of 500 to 5000 nM; in test [2], 10 to 100 nM.

With `FC(F)(F)c1ccc2ncc(-c3nccc(N4CCN(C[C@@H]5CC56CCOCC6)[C@H](c5cn[nH]c5)C4)n3)n2c1` [I-520, 3-(4-((R)-4-(((R)-6-oxaspiro[2.5]octan-1-yl)methyl)-3-(1H-pyrazol-4-yl)piperazin-1-yl)pyrimidin-2-yl)-6-(trifluoromethyl)imidazo[1,2-a]pyridine], the results for the IC50 in test [1] and in test [2] were below 500 nM and 10 to 100 nM, respectively.

Turning to `Cc1cc(-c2cnc3ccc(Cl)cn23)nc(N2C[C@@H](C)C[C@@H](c3cn[nH]c3)C2)n1` [I-208, 6-chloro-3-(6-methyl-2-((3S,5S)-3-methyl-5-(1H-pyrazol-4-yl)piperidin-1-yl)pyrimidin-4-yl)imidazo[1,2-a]pyridine], the IC50 was below 500 nM in test [1] and 10 to 100 nM in test [2].

For `O=C(c1cn[nH]n1)N1CCN(c2ccnc(-c3cnc4ccc(C(F)(F)F)cn34)n2)CC1c1cn[nH]c1` (centres unmarked) [I-442, (2-(1H-pyrazol-4-yl)-4-(2-(6-(trifluoromethyl)imidazo[1,2-a]pyridin-3-yl)pyrimidin-4-yl)piperazin-1-yl)(2H-1,2,3-triazol-4-yl)methanone], the results for the half-maximal inhibitory concentration (IC50) in test [1] and in test [2] were 500 to 5000 nM and 10 to 100 nM, respectively.

Regarding `C[C@@H](NS(C)(=O)=O)[C@@H]1CN(c2ccnc(-c3cnc4ccc(C(F)(F)F)cn34)n2)CCO1` (stereo in doubt) [I-404, N—((R)-1-((S)-4-(2-(6-(trifluoromethyl)imidazo[1,2-a]pyridin-3-yl)pyrimidin-4-yl)morpholin-2-yl)ethyl)methanesulfonamide], the half-maximal inhibitory concentration (IC50) in test [1] lay in the range of 500 to 5000 nM; in test [2], 10 to 100 nM.

As for `FC(F)(F)c1ccc2ncc(-c3nccc(N4CCN(C5CC5)C(c5cn[nH]c5)C4)n3)n2c1` (stereo in doubt) [I-503, (R)-3-(4-(4-cyclopropyl-3-(1H-pyrazol-4-yl)piperazin-1-yl)pyrimidin-2-yl)-6-(trifluoromethyl)imidazo[1,2-a]pyridine], the IC50 in test [1] is below 500 nM; in test [2], 10 to 100 nM.

For `Cc1n[nH]nc1[C@H]1C[C@@H](C)CN(c2ccnc(-c3cnc4ccc(C(F)(F)F)cn34)n2)C1` [I-408, 3-(4-((3R,5S)-3-methyl-5-(5-methyl-2H-1,2,3-triazol-4-yl)piperidin-1-yl)pyrimidin-2-yl)-6-(trifluoromethyl)imidazo[1,2-a]pyridine], the figures for the half-inhibitory concentration (IC50) in test [1] and in test [2] were 500 to 5000 nM and 10 to 100 nM, respectively.

On to `Cc1[nH]ncc1[C@@H]1C[C@@H](O)CN(c2ccnc(-c3cnc4ccc(C(F)(F)F)cn34)n2)C1` [I-308, (3R,5S)-5-(5-methyl-1H-pyrazol-4-yl)-1-(2-(6-(trifluoromethyl)imidazo[1,2-a]pyridin-3-yl)pyrimidin-4-yl)piperidin-3-ol], for which the IC50 was in the range of 500 to 5000 nM in test [1] and 10 to 100 nM in test [2].

For `COCC1(CN2CCN(c3ccnc(-c4cnc5ccc(C(F)(F)F)cn45)n3)[C@@H](C)[C@@H]2c2cn[nH]c2)CCC1` [I-512, 4-[(2S,3 S)-4-{[1-(methoxymethyl)cyclobutyl]methyl}-2-methyl-3-(1H-pyrazol-4-yl)piperazin-1-yl]-2-[6-(trifluoromethyl)imidazo[1,2-a]pyridin-3-yl]pyrimidine], the IC50 in test [1] lay within 500 to 5000 nM; in test [2], 100 to 1000 nM.

With `Cc1n[nH]cc1[C@@H]1CN(c2ccnc(-c3cnc4cc(Cl)c(C(F)(F)F)cn34)n2)C[C@@H](C)O1` [I-360, (2R,6R)-4-(2-(7-chloro-6-(trifluoromethyl)imidazo[1,2-a]pyridin-3-yl)pyrimidin-4-yl)-2-methyl-6-(3-methyl-1H-pyrazol-4-yl)morpholine], the IC50 was below 500 nM in test [1] and below 10 nM in test [2].

With `Clc1ccc2ncc(-c3nccc(N4CCC(c5cn[nH]c5)C4)n3)n2c1` (centres unmarked) [I-27, 6-Chloro-3-[4-[3-(1H-pyrazol-4-yl)pyrrolidin-1-yl]pyrimidin-2-yl]imidazo[1,2-a]pyridine], the 50% inhibitory concentration (IC50) in test [1] was below 500 nM. In test [2], the Ki is below 10 nM.

For the molecule `Cn1nccc1C(=O)N1CCN(c2ccnc(-c3cnc4ccc(C(F)(F)F)cn34)n2)CC1c1cn[nH]c1` (centres unmarked) [I-419, (2-(1H-pyrazol-4-yl)-4-(2-(6-(trifluoromethyl)imidazo[1,2-a]pyridin-3-yl)pyrimidin-4-yl)piperazin-1-yl)(1-methyl-1H-pyrazol-5-yl)methanone], the IC50 in test [1] lay within 500 to 5000 nM; in test [2], 10 to 100 nM.

`NC(=O)[C@@H]1CCCN(c2nc(-c3cnc4ccc(C(F)(F)F)cn34)ccc2F)C1` [I-260, (R)-1-(3-fluoro-6-(6-(trifluoromethyl)imidazo[1,2-a]pyridin-3-yl)pyridin-2-yl)piperidine-3-carboxamide]: the IC50 in test [1] is below 500 nM; in test [2], below 10 nM.

For `CS(=O)(=O)NC[C@@H]1CN(c2nc(-c3cnc4ccc(C(F)(F)F)cn34)cs2)CCO1` [I-111, (S)—N-((4-(4-(6-(trifluoromethyl)imidazo[1,2-a]pyridin-3-yl)thiazol-2-yl)morpholin-2-yl)methyl)methanesulfonamide], the IC50 in test [1] was 500 to 5000 nM. In test [2], this molecule gave a Ki of 10 to 100 nM.

In the case of `CC(C)(C)OC(=O)N1CC2(CCCN(c3ccnc(-c4cnc5ccc(C(F)(F)F)cn45)n3)C2)C1` [I-387, tert-butyl 6-(2-(6-(trifluoromethyl)imidazo[1,2-a]pyridin-3-yl)pyrimidin-4-yl)-2,6-diazaspiro[3.5]nonane-2-carboxylate], the figures for the IC50 in test [1] and in test [2] were 500 to 5000 nM and 100 to 1000 nM, respectively.

As to `O=C1NCC2CN(c3ccnc(-c4cnc5ccc(C(F)(F)F)cn45)n3)CCN12` (centres unmarked) [I-5, 7-(2-(6-(Trifluoromethyl)imidazo[1,2-a]pyridin-3-yl)pyrimidin-4-yl)hexahydroimidazo[1,5-a]pyrazin-3(2H)-one], in test [1], the IC50 was in the range of 500 to 5000 nM. The molecule further came in with a Ki in test [2] of 10 to 100 nM.

Take `CC(C)n1ccc(C(=O)N2[C@H](C)CN(c3ccnc(-c4cnc5ccc(C(F)(F)F)cn45)n3)C[C@@H]2C)n1` [I-401, (cis-2,6-dimethyl-4-(2-(6-(trifluoromethyl)imidazo[12-a]pyridin-3-yl)pyrimidin-4-yl)piperazin-1-yl)(1-isopropyl-1H-pyrazol-3-yl)methanone]: the figures for the IC50 in test [1] and in test [2] were 500 to 5000 nM and 100 to 1000 nM, respectively.
